According to patent US9718840B2, “Condensed 5-oxazolidinone derivative” (SUMITOMO DAINIPPON PHARMA CO., LTD., priority 2014, dated 2017):
Values belong to the compound of their own block, whether it stands above or below them.

Legend:
[1] = tested on: Rabbit nail bleeding models; assay: Effect of combined use with antiplatelet drug using rabbit nail bleeding model; assay type: in vivo; settings: alone, dose 0.67 + 1.0 mg/kg + mg/kg/h i.v.
Description: Rabbit nail bleeding models were prepared by a modification of the report of Wong et al. (Wong P C. et al., J. Thromb. Haemost. 7: 1313-1320 (2009)). Male rabbits (JW, 1.5 to 3.5 kg) were anesthetized by the inhalation of isoflurane (ISOFLU®, manufactured by DS Pharma Animal Health Co., Ltd.) (introduced anesthesia: 4%, continuous anesthesia: 2 to 3%). For the intravenous administration of a test drug or a vehicle, an indwelling needle was inserted to the auricular vein, and the test drug or the vehicle was promptly intravenously administered (0.67 mL/kg) and then continuously intravenously administered (1 mL/kg/hr). One hour after the start of administration, three posterior toenails were cut and dipped in saline heated to approximately 37° C., and the bleeding time was measured. The bleeding time was defined as a time from the cutting to the arrest of bleeding, and an average value from the three nails was used. The measurement time was 60 minutes at the maximum. If bleeding for 60 minutes or longer was confirmed, the bleeding time was regarded as 60 minutes.

[2] = tested on: Rabbit venous thrombus models; assay: Effect of combined use with antiplatelet drug using rabbit AVST model; assay type: in vivo; settings: alone, dose 0.67 + 1.0 mg/kg + mg/kg/h i.v.
Description: Rabbit venous thrombus models were prepared by a modification of the report of Wong et al. (Wong P C. et al., J. Pharmacol. Exp. Ther. 292: 351-357 (2000)). […] A tracheostomy tube was inserted to each rabbit, which was then ventilated using a respirator. For the intravenous administration of a test drug and blood collection, catheters were inserted to the right femoral vein and the right femoral artery, respectively. An arteriovenous shunt filled with saline was inserted to the carotid artery and the jugular vein. […] Also, 4-0 silk thread having a length of 5 cm was indwelled in the arteriovenous shunt. Blood was sent for 30 minutes from the carotid artery to the jugular vein via the arteriovenous shunt. The shunt was removed, and the weight of the silk thread covered with thrombus was measured. The weight of the silk thread measured before the experiment was subtracted from the measured weight, and the obtained value was used as a wet thrombus weight. One hour before the open of the arteriovenous shunt, the test drug or a vehicle was promptly intravenously administered (0.67 mL/kg) and then continuously intravenously administered (1 mL/kg/hr). The continuous injection was continued throughout the experiment. […] STA calcium chloride (manufactured by Roche Diagnostics K.K.) was added in an amount equal thereto, and the time required for coagulation was measured.

male cynomolgus monkey = assay: Cynomolgus monkey aPTT evaluation test; assay type: in vivo
Description: The compound of Example 7 was suspended in a 0.5% aqueous methylcellulose solution, and this suspension was orally administered at a dose of 10 mg/5 mL/kg or 30 mg/5 mL/kg to a male cynomolgus monkey fasted for 16 hours. Blood collection for aPTT evaluation was carried out before administration and 0.5, 1, 2, 4, 6, and 24 hours after administration. 0.9 mL of blood was collected using a syringe packed with 100 μL of 3.2% sodium citrate, transferred to a centrifugal tube cooled in ice, and centrifuged at 2100 g at 4° C. for 10 minutes to prepare plasma. After incubation at 37° C. for 6 minutes, an STA reagent Cephascreen (for aPTT assay; manufactured by Roche Diagnostics K.K.) was added in an amount equal to the amount of the plasma, and the mixture was further incubated for 4 minutes. STA calcium chloride (manufactured by Roche Diagnostics K.K.) was added in an amount equal to the amount of the plasma, and the time required for coagulation was measured. Blood collection for the measurement of the compound concentration was carried out 0.5, 1, 2, 4, 6, and 24 hours after administration. 1 mL of blood was collected using a syringe packed with 10 μL of Novo-Heparin Injection, transferred to a centrifugal tube cooled in ice, and centrifuged at 2100 g at 4° C. for 10 minutes to prepare plasma. 200 μL of the prepared plasma was added to a tube containing 600 μL of acetonitrile and mixed for approximately 10 seconds using a vortex mixer. Then, the concentration of the compound of Reference Example 2-6 (a value based on the free form) was measured.

[3] = Ester metabolism stability test: stability in human liver; assay type: in vitro ADME; settings: 37° C., 20 minutes, with NADPH
Description: A reaction solution containing 5 μL of human liver S9 (manufactured by Sekisui XenoTech, LLC, 20 mg/mL) mixed with 20 μL of 500 mmol/L Kpi (pH 7.4), 40 μL of a 5 mmol/L aqueous solution of NADPH (manufactured by Oriental Yeast Co., Ltd.), and 133 μL of ion-exchange water was added to 2 μL of a DMSO solution containing a 100 μmol/L test substance, and the mixture was incubated at 37° C. for 20 minutes. After the incubation, the metabolic reaction was terminated by the addition of 600 μL of acetonitrile.

[4] = Ester metabolism stability test: metabolite identification by LC-MS
Excerpt: The metabolites were identified using LC (LC-Nexera X2 manufactured by Shimadzu Corp.)-MS (API4000 manufactured by AB Sciex Pte Ltd.).

human plasma = assay: Ester metabolism stability test: stability in human plasma; assay type: in vitro ADME; settings: 37° C., 20 minutes
Description: 198 μL of human plasma (manufactured by Cosmo Bio Inc.) was added to 2 μL of a DMSO solution containing a 100 μmol/L test substance, and the mixture was incubated at 37° C. for 20 minutes. After the incubation, the metabolic reaction was terminated by the addition of 600 μL of acetonitrile.

[5] = oral 10 mg/kg, 0 hr (before administration)
[6] = oral 30 mg/kg, 0 hr (before administration)
[7] = metabolites identified using LC-MS

Residual rate (%) Human liver S9 [3]: 82%
Metabolite formed (conversion by metabolism) ([4]; human, 20 min, 1 μmol/L): Example 25
Residual rate (%) Human plasma (human plasma): 14%
Structure (SMILES): CC1(C)OC(=O)c2cc3cc(NC(=O)[C@@H]4[C@H](N5CCCCC5)CCN4C(=O)[C@H]4CC[C@H]([C@H](N)CF)CC4)ccc3n21 [Example 15, (2S,3R)-1-({trans-4-[(1S)-1-Amino-2-fluoroethyl]cyclohexyl}carbonyl)-N-(3,3-dimethyl-1-oxo-1H-[1,3]oxazolo[3,4-a]indol-7-yl)-3-(piperidin-1-yl)pyrrolidine-2-carboxamide 2-trifluoroacetate]

Residual rate (%) Human liver S9 [3]: >99%
Metabolite formed (conversion by metabolism) ([4]; human, 20 min, 1 μmol/L): converted to the compound of Example 23
Residual rate (%) Human plasma (human plasma): 50%
Structure (SMILES): CC1(C)OC(=O)c2cc3cc(NC(=O)[C@@H]4[C@H](C5CCCCC5)CCN4C(=O)[C@H]4CC[C@H](CN)CC4)ccc3n21.Cl [Example 17, (3S)-1-{[trans-4-(aminomethyl)cyclohexyl]carbonyl}-3-cyclohexyl-N-(3,3-dimethyl-1-oxo-1H-[1,3]oxazolo[3,4-a]indol-7-yl)-L-prolinamide]

Residual rate (%) Human liver S9 [3]: 78%
Metabolite formed (conversion by metabolism) ([4]; human, 20 min, 1 μmol/L): converted to the compound of Example 23
Residual rate (%) Human plasma (human plasma): 15%
Structure (SMILES): Cl.NC[C@H]1CC[C@H](C(=O)N2CC[C@@H](C3CCCCC3)[C@H]2C(=O)Nc2ccc3c(c2)cc2n3C(CF)(CF)OC2=O)CC1 [Example 18]

More lines, now with the values behind:

Structure (SMILES): CC(=O)Oc1ccccc1C(=O)O [Aspirin]
Bleeding time ([1]; rabbit, maximum 60 minutes): 1087 ± 522 s
Bleeding time (fold-increase) ([1]; ratio to vehicle group average): 1.9 ± 0.9 fold-increase
PT (ratio) [2]: 0.99 ± 0.01 ratio
Thrombus weight [2]: 96 ± 9 mg
aPTT (ratio) [2]: 0.97 ± 0.01 ratio

Structure (SMILES): Cl.N[C@H](CF)[C@H]1CC[C@H](C(=O)N2CC[C@@H](C3CCCCC3)[C@H]2C(=O)Nc2ccc3c(c2)cc2n3C3(CCC3)OC2=O)CC1 [Example 7, (3S)-1-({trans-4-[(1S)-1-amino-2-fluoroethyl]cyclohexyl}carbonyl)-3-cyclohexyl-N-(1′-oxo-1′H-spiro[cyclobutane-1,3′-[1,3]oxazolo[3,4-a]indol]-7′-yl)-L-prolinamide hydrochloride]
aPTT (male cynomolgus monkey; [5]): 23.8 ± 2.2 s
aPTT (ratio) (male cynomolgus monkey; [5]): 1.00 ± 0.00 ratio
aPTT (male cynomolgus monkey; oral 10 mg/kg, 0.5 hr): 26.9 ± 3.3 s
aPTT (ratio) (male cynomolgus monkey; oral 10 mg/kg, 0.5 hr): 1.13 ± 0.03 ratio
aPTT (male cynomolgus monkey; oral 10 mg/kg, 1 hr): 30.5 ± 3.0 s
aPTT (ratio) (male cynomolgus monkey; oral 10 mg/kg, 1 hr): 1.29 ± 0.04 ratio
aPTT (male cynomolgus monkey; oral 10 mg/kg, 2 hr): 36.5 ± 4.1 s
aPTT (ratio) (male cynomolgus monkey; oral 10 mg/kg, 2 hr): 1.53 ± 0.07 ratio
aPTT (male cynomolgus monkey; oral 10 mg/kg, 4 hr): 38.5 ± 3.5 s
aPTT (ratio) (male cynomolgus monkey; oral 10 mg/kg, 4 hr): 1.62 ± 0.00 ratio
aPTT (male cynomolgus monkey; oral 10 mg/kg, 6 hr): 37.5 ± 4.5 s
aPTT (ratio) (male cynomolgus monkey; oral 10 mg/kg, 6 hr): 1.57 ± 0.06 ratio
aPTT (male cynomolgus monkey; oral 10 mg/kg, 24 hr): 26.1 ± 3.2 s
aPTT (ratio) (male cynomolgus monkey; oral 10 mg/kg, 24 hr): 1.10 ± 0.06 ratio
aPTT (male cynomolgus monkey; [6]): 23.9 ± 1.6 s
aPTT (ratio) (male cynomolgus monkey; [6]): 1.00 ± 0.00 ratio
aPTT (male cynomolgus monkey; oral 30 mg/kg, 0.5 hr): 27.6 ± 3.2 s
aPTT (ratio) (male cynomolgus monkey; oral 30 mg/kg, 0.5 hr): 1.15 ± 0.10 ratio
aPTT (male cynomolgus monkey; oral 30 mg/kg, 1 hr): 32.8 ± 2.8 s
aPTT (ratio) (male cynomolgus monkey; oral 30 mg/kg, 1 hr): 1.37 ± 0.03 ratio
aPTT (male cynomolgus monkey; oral 30 mg/kg, 2 hr): 36.9 ± 0.8 s
aPTT (ratio) (male cynomolgus monkey; oral 30 mg/kg, 2 hr): 1.55 ± 0.07 ratio
aPTT (male cynomolgus monkey; oral 30 mg/kg, 4 hr): 39.4 ± 1.4 s
aPTT (ratio) (male cynomolgus monkey; oral 30 mg/kg, 4 hr): 1.65 ± 0.12 ratio
aPTT (male cynomolgus monkey; oral 30 mg/kg, 6 hr): 39.4 ± 1.5 s
aPTT (ratio) (male cynomolgus monkey; oral 30 mg/kg, 6 hr): 1.65 ± 0.12 ratio
aPTT (male cynomolgus monkey; oral 30 mg/kg, 24 hr): 34.0 ± 3.3 s
aPTT (ratio) (male cynomolgus monkey; oral 30 mg/kg, 24 hr): 1.42 ± 0.05 ratio
Residual rate (%) Human liver S9 [3]: 71%
Metabolite formed (conversion by metabolism) [4, 7]: converted to the compound of Reference Example 2-6
Residual rate (%) Human plasma (human plasma): <1%

Structure (SMILES): CC1(C)OC(=O)c2cc3cc(NC(=O)[C@@H]4[C@H](c5ccccc5)CCN4C(=O)[C@H]4CC[C@H]([C@H](N)CF)CC4)ccc3n21.Cl [Example 19, (3S)-1-({trans-4-[(1S)-1-amino-2-fluoroethyl]cyclohexyl}carbonyl)-N-(3,3-dimethyl-1-oxo-1H-[1,3]oxazolo[3,4-a]indol-7-yl)-3-phenyl-L-prolinamide]
Residual rate (%) Human liver S9 [3]: 93%
Metabolite formed (conversion by metabolism) [4, 7]: Reference Example 19-1
Residual rate (%) Human plasma (human plasma): 15%

Structure (SMILES): CC1(C)OC(=O)c2cc3cc(NC(=O)[C@@H]4[C@@H](c5ccccc5)CCN4C(=O)[C@H]4CC[C@H]([C@H](N)CF)CC4)ccc3n21.Cl [Example 20, (3R)-1-({trans-4-[(1S)-1-amino-2-fluoroethyl]cyclohexyl}carbonyl)-N-(3,3-dimethyl-1-oxo-1H-[1,3]oxazolo[3,4-a]indol-7-yl)-3-phenyl-L-prolinamide]
Residual rate (%) Human liver S9 [3]: 93%
Metabolite formed (conversion by metabolism) [4, 7]: Reference Example 20-5
Residual rate (%) Human plasma (human plasma): 11%
